Results on two compounds are retold here after PMC8245078, “Development of novel benzofuran-isatin conjugates as potential antiproliferative agents with apoptosis inducing mechanism in Colon cancer” (Journal of Enzyme Inhibition and Medicinal Chemistry, 2021).

A word on the IC50: it is the midpoint of a concentration-inhibition curve.

Assay [1] deals with SW-620 colorectal cancer cell line. The assay is described as follows: MTT cell viability assay. Type of assay: cell-based, human. The conditions noted are these: for inhibition of SW-620 cancer cells viability: 10 µM, 24 h, MTT. The method, then:
In the present investigation a new set of benzofuran–isatin hybrids (5a–e and 7a–i) was synthesised to be evaluated for their potential anticancer activity towards two human colorectal cancer cell lines, SW-620 and HT-29. […] Both, SW-620 and HT-29 cells were treated with 10 µM of each compound for 24 h and the percent cell viability was calculated using MTT assay.
For this reason, compounds 5a and 5d were pursued for further studies. Starting with determination of IC50s and cytotoxic selectivity studies. Serial concentrations of compounds 5a and 5d were used to examine their impact on cell viability using MTT protocol. Results of concentration vs percent viability were charted, and the IC50 was calculated for SW-620 and HT-29 cell lines using Graph Pad prism 8 (Figure 4). […]
[(Ti-Tz)/Tz] x 100 for concentrations for which Ti<Tz […]
SW620 and HT29 colorectal cancer cell lines and HFF-1 fibroblast (ATCC, Rockville, USA) were used. HT29 cells were cultured and maintained in Dulbecco’s Modified Eagles Medium (DMEM) (GIBCO, by Thermo Fischer Scientific, NY, USA) supplemented with 10% fetal bovine serum (FBS), 100 units/mL penicillin, and 100 μg streptomycin. SW620 and HFF-1 cells were cultured in Roswell Park Memorial Institute medium (RPMI-1640) (GIBCO, by Thermo scientific, NY, USA) supplemented with 10% FBS and 1% penicillin and streptomycin (Napolitano et al., 2015). All cultures were incubated at 37 °C and humidified atmosphere of 5% […]
2.3. Cell Viability Assay
The cytotoxicity effect of compounds on the colorectal cancer cell lines, SW620 and HT29 in addition to the normal human fibroblasts was measured by MTT (3-(4, 5-dimethylthiazol-2-yl)-2,5-diphenyltetrazolium bromide) (Sigma-Aldrich, St. Louis, MO, USA) as previously described. Briefly, cells were seeded in 96 well culture plates at 5000/well for HT29 and 10,000/well for SW620 for 24 h. Cells were then incubated with different compounds from WAG1 series (1-15) 24h at 37 °C and humidified 5% CO2 incubator. Freshly prepared 10 μl of 3-(4,5-dimethylthiazol-2-yl)-2,5-diphenyltetrazolium bromide (MTT 5 mM) solution were added to the cells and further incubated for 2 h. Thereafter, 100 μl of dimethyl sulfoxide (DMSO) were added in each well and the crystals were dissolved through careful pipetting. In certain experiment, cells were treated different concentration of 5FU for 72 h. The absorbance of the product was measured at 540 nm using a Synergy™ 2 multi-mode microplate reader (Biotech, VA, USA). The experiments were performed in triplicate for each condition. […]
The total protein concentration was evaluated by the colorimetric
Bradford protein assay (BIO-RAD inc, CA, USA) at 595 nm absorbance. Lysates were loaded in […]
Background: Tetrazolium assays rely on reduction of a dye to a coloured formazan, in cell work by metabolically active cells.

Assay [2] relates to anti-apoptotic Bcl2 protein in SW-620 cells. The assay can be described thus: Western blot analysis of Bcl2. Type of assay: cell-based, human. The conditions noted are these: SW-620, 5 μM and 10 μM, 24 h. The text has this: To further examine the possible mechanism of apoptosis, the effect of compounds 5a and 5d on certain apoptosis-related proteins was studied. Bcl2 protein as a critical component of the mitochondrial apoptotic pathway is reported to be overexpressed in numerous tumours causing survival of cancer cell[62]. In addition, it was reported that caspase activation during apoptosis leads to proteolytic cleavage of several cellular substrates participating in DNA reparation including [poly (ADP-ribose) polymerase][63]. Therefore, the impact of compounds 5a and 5d on the anti-apoptotic protein Bcl2 and the level of cleaved PARP was examined (Figure 7). […]
2.5. Western Blot Analysis
All cells were seeded in a 100 mm dish (1 × 10^6 cells per dish) in 5% CO2 at 37 °C in the appropriate culture medium. The cells with around 50% confluency were treated with compounds for 24h. At the experiment day, cells were washed with 1x PBS, harvested and lysed in RIPA lysis buffer, combined with protease inhibitors, (Sigma-Aldrich, St. Louis, MO, USA) as described previously (39)). The total protein concentration was evaluated by the colorimetric Bradford protein assay (BIO-RAD inc, CA, USA) at 595 nm absorbance. Lysates were loaded in […]
equal concentration and separated by sodium dodecyl sulfate-polyacrylamide gel electrophoresis (SDS-PAGE) and then transferred to a nitrocellulose membrane by semi-dry. […]
In general terms: A western blot detects proteins with antibodies after separation by electrophoresis.

Where [3] appears, read: Homo sapiens, SW-620, SW-620, MTT.

In the case of `Cc1c(C(=O)N/N=C2\C(=O)Nc3ccccc32)oc2ccccc12` [Compound 5a], the “inhibition of SW-620 cancer cells viability” value in assay [1] came out at 46%. Moreover, the IC50 amounted to 8.7 µM in assay [1] (setting [3]) and 9.4 µM in assay [1] (SW-620, MTT). Also, the “Bcl2 protein expression (Western blot, in words)” value in assay [2] is “dose dependent inhibition”.

`COc1ccc2c(c1)/C(=N/NC(=O)c1oc3ccccc3c1C)C(=O)N2` [Compound 5d]: the “inhibition of SW-620 cancer cells viability” value in assay [1] was “about 52%”. Also, the IC50 amounted to 6.5 µM in assay [1] (setting [3]) and 9.8 µM in assay [1] (SW-620, MTT). The “Bcl2 protein expression (Western blot, in words)” value in assay [2] was “significant inhibition”.
